Patent US20240025841A1, “METHOD FOR OBTAINING CRYSTALLINE DIETHYLAMINO HYDROXYBENZOYL HEXYL BENZOATE” (BASF SE, priority 2020, published 2024)

Experiment: Equilibrium solubility of (I) in 1-hexanol at different temperatures
Type: physicochemical
Settings: equilibrium solubility in 1-hexanol
Description: The equilibrium solubility of (I) in 1-hexanol at different temperatures was determined using a double jacketed 750 mL crystallizer. A mixture of (I) and 1-hexanol in the crystallizer was heated to a target temperature and the equilibrium condition was allowed to establish at that temperature. Samples from the solid free mother liquor were drawn using a filter frit. The samples were analysed for (I) content.
The results are shown in […].1 and are plotted in FIG. 1.

SMILES: CCCCCCOC(=O)c1ccccc1C(=O)c1ccc(N(CC)CC)cc1O [(I), 2-(4′-Diethylamino-2′-hydroxybenzoyl)benzoic acid hexyl ester]
- (I) concentration (0 °C): 3.8%
- (I) concentration (4 °C): 4.3%
- (I) concentration (7 °C): 5.4%
- (I) concentration (8 °C): 5.3%
- (I) concentration (12 °C): 6.2%
- (I) concentration (13.7 °C): 8.6%
- (I) concentration (16 °C): 7.6%
- (I) concentration (20 °C): 8.8%
- (I) concentration (25 °C): 12.3%
- (I) concentration (28.3 °C): 17.6%
- (I) concentration (30 °C): 19.0%
- (I) concentration (35 °C): 40.0%
- (I) concentration (−0.9 °C): 3.4%
